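Dose response: 5 concentrations. Exposure: 48 h. Format: 96-well plates. Endpoint: linear interpolation; highest concentration if not reached. At the GI50, growth is halved.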 Calls of active or inactive are those of the source. No stated cut-off is given here; in the data, active = GI50 up to about 1.1 µM and inactive = higher.
Columns and labels:
Test in all cases: NCI anticancer screen, dose series, 48 h
OVCAR-3 = system: OVCAR-3
Malme-3M = system: Malme-3M
SF-539 = system: SF-539
MOLT-4 = system: MOLT-4
U-251 = system: U-251
NCI-H460 = system: NCI-H460
M14 = system: M14
TK-10 = system: TK-10
PC-3 = system: PC-3
OVCAR-8 = system: OVCAR-8
NCI-H226 = system: NCI-H226
MDA-N = system: MDA-N
IGROV-1 = system: IGROV-1
HT-29 = system: HT-29
MDA-MB-231 = system: MDA-MB-231
COLO 205 = system: COLO 205
786-0 = system: 786-0
UO-31 = system: UO-31
A549 = system: A549
K562 = system: K562
HOP-92 = system: HOP-92
SW-620 = system: SW-620
NCI-H522 = system: NCI-H522
SF-295 = system: SF-295
SK-MEL-2 = system: SK-MEL-2
MCF7 = system: MCF7
ACHN = system: ACHN
RXF 393 = system: RXF 393
CCRF-CEM = system: CCRF-CEM
RPMI-8226 = system: RPMI-8226
A498 = system: A498
SR = system: SR
UACC-257 = system: UACC-257
UACC-62 = system: UACC-62
HCT-15 = system: HCT-15
LOX IMVI = system: LOX IMVI
T47D = system: T47D
EKVX = system: EKVX
Hs-578T = system: Hs-578T
OVCAR-4 = system: OVCAR-4
HL-60 = system: HL-60
OVCAR-5 = system: OVCAR-5
MDA-MB-435 = system: MDA-MB-435
SF-268 = system: SF-268
SK-MEL-5 = system: SK-MEL-5
CAKI-1 = system: CAKI-1
SNB-19 = system: SNB-19
NCI-H23 = system: NCI-H23
NCI/ADR-RES = system: NCI/ADR-RES
SNB-75 = system: SNB-75
SK-OV-3 = system: SK-OV-3
BT-549 = system: BT-549
HCC 2998 = system: HCC 2998
HOP-62 = system: HOP-62
SK-MEL-28 = system: SK-MEL-28
HCT-116 = system: HCT-116
KM12 = system: KM12
SN12C = system: SN12C
DU-145 = system: DU-145

Compound: CSC1=C(c2ccc(Cl)cc2)SC(N2CCCCC2)N1c1ccc([N+](=O)[O-])cc1 (stereo not given)
- GI50 (OVCAR-3): 21.8 µM (inactive)
- GI50 (Malme-3M): 45.2 µM (inactive)
- GI50 (SF-539): 21.3 µM (inactive)
- GI50 (MOLT-4): 26 µM (inactive)
- GI50 (U-251): 21.4 µM (inactive)
- GI50 (NCI-H460): 23.6 µM (inactive)
- GI50 (M14): 18.5 µM (inactive)
- GI50 (TK-10): 42.2 µM (inactive)
- GI50 (PC-3): 18.5 µM (inactive)
- GI50 (OVCAR-8): 32.1 µM (inactive)
- GI50 (NCI-H226): 76.9 µM (inactive)
- GI50 (MDA-N): 39.4 µM (inactive)
- GI50 (IGROV-1): 29.8 µM (inactive)
- GI50 (HT-29): 30.6 µM (inactive)
- GI50 (MDA-MB-231): 27.1 µM (inactive)
- GI50 (COLO 205): 27.1 µM (inactive)
- GI50 (786-0): 31.6 µM (inactive)
- GI50 (UO-31): 32.7 µM (inactive)
- GI50 (A549): 29.2 µM (inactive)
- GI50 (K562): 33 µM (inactive)
- GI50 (HOP-92): 26.7 µM (inactive)
- GI50 (SW-620): 38.7 µM (inactive)
- GI50 (NCI-H522): 24.2 µM (inactive)
- GI50 (SF-295): 24 µM (inactive)
- GI50 (SK-MEL-2): 20.5 µM (inactive)
- GI50 (MCF7): 35.6 µM (inactive)
- GI50 (ACHN): 25.2 µM (inactive)
- GI50 (RXF 393): > 100 µM (inactive)
- GI50 (CCRF-CEM): 38.4 µM (inactive)
- GI50 (RPMI-8226): 16.6 µM (inactive)
- GI50 (A498): 19 µM (inactive)
- GI50 (SR): 31.3 µM (inactive)
- GI50 (UACC-257): 24.8 µM (inactive)
- GI50 (UACC-62): 17.5 µM (inactive)
- GI50 (HCT-15): 26.1 µM
- GI50 (LOX IMVI): 30.6 µM (inactive)
- GI50 (T47D): 23.9 µM (inactive)
- GI50 (EKVX): 40.6 µM (inactive)
- GI50 (Hs-578T): 47.9 µM (inactive)
- GI50 (OVCAR-4): 23.3 µM (inactive)
- GI50 (HL-60): 25.5 µM (inactive)
- GI50 (OVCAR-5): 28 µM (inactive)
- GI50 (MDA-MB-435): 31.6 µM (inactive)
- GI50 (SF-268): 41.3 µM (inactive)
- GI50 (SK-MEL-5): 14.6 µM (inactive)
- GI50 (CAKI-1): 44.8 µM (inactive)
- GI50 (SNB-19): 28.8 µM (inactive)
- GI50 (NCI-H23): 23 µM (inactive)
- GI50 (NCI/ADR-RES): 26.7 µM (inactive)
- GI50 (SNB-75): 26.2 µM (inactive)
- GI50 (SK-OV-3): 30.9 µM (inactive)
- GI50 (BT-549): 27.3 µM (inactive)
- GI50 (HCC 2998): 41.9 µM (inactive)
- GI50 (HOP-62): 20 µM (inactive)
- GI50 (SK-MEL-28): 38.8 µM (inactive)
- GI50 (HCT-116): 23 µM (inactive)
- GI50 (KM12): 31 µM (inactive)

Compound: COC(=O)C1C(OC(=O)C(Cl)(c2ccccc2)c2ccccc2)CC2CCC1N2C (stereo not given)
- GI50 (OVCAR-3): > 100 µM (inactive)
- GI50 (Malme-3M): > 100 µM (inactive)
- GI50 (SF-539): > 100 µM (inactive)
- GI50 (MOLT-4): > 100 µM (inactive)
- GI50 (U-251): > 100 µM (inactive)
- GI50 (M14): 45.1 µM (inactive)
- GI50 (TK-10): > 100 µM (inactive)
- GI50 (PC-3): > 100 µM (inactive)
- GI50 (OVCAR-8): > 100 µM (inactive)
- GI50 (NCI-H226): > 100 µM (inactive)
- GI50 (MDA-N): > 100 µM (inactive)
- GI50 (IGROV-1): > 100 µM (inactive)
- GI50 (HT-29): > 100 µM (inactive)
- GI50 (MDA-MB-231): > 100 µM (inactive)
- GI50 (COLO 205): > 100 µM (inactive)
- GI50 (786-0): > 100 µM (inactive)
- GI50 (UO-31): > 100 µM (inactive)
- GI50 (A549): > 100 µM (inactive)
- GI50 (K562): > 100 µM (inactive)
- GI50 (SW-620): > 100 µM (inactive)
- GI50 (NCI-H522): > 100 µM (inactive)
- GI50 (SF-295): > 100 µM (inactive)
- GI50 (MCF7): > 100 µM (inactive)
- GI50 (ACHN): > 100 µM (inactive)
- GI50 (RXF 393): > 100 µM (inactive)
- GI50 (CCRF-CEM): > 100 µM (inactive)
- GI50 (RPMI-8226): > 100 µM (inactive)
- GI50 (SR): > 100 µM (inactive)
- GI50 (UACC-257): > 100 µM (inactive)
- GI50 (UACC-62): > 100 µM (inactive)
- GI50 (HCT-15): > 100 µM
- GI50 (LOX IMVI): > 100 µM (inactive)
- GI50 (T47D): > 100 µM (inactive)
- GI50 (EKVX): > 100 µM (inactive)
- GI50 (HL-60): > 100 µM (inactive)
- GI50 (OVCAR-5): > 100 µM (inactive)
- GI50 (MDA-MB-435): > 100 µM (inactive)
- GI50 (SN12C): > 100 µM (inactive)
- GI50 (SF-268): > 100 µM (inactive)
- GI50 (DU-145): > 100 µM (inactive)
- GI50 (SK-MEL-5): > 100 µM (inactive)
- GI50 (CAKI-1): 94.6 µM (inactive)
- GI50 (SNB-19): > 100 µM (inactive)
- GI50 (NCI-H23): > 100 µM (inactive)
- GI50 (NCI/ADR-RES): > 100 µM (inactive)
- GI50 (SNB-75): > 100 µM (inactive)
- GI50 (SK-OV-3): > 100 µM (inactive)
- GI50 (BT-549): > 100 µM (inactive)
- GI50 (HCC 2998): > 100 µM (inactive)
- GI50 (HOP-62): > 100 µM (inactive)
- GI50 (SK-MEL-28): > 100 µM (inactive)
- GI50 (HCT-116): > 100 µM (inactive)
- GI50 (KM12): > 100 µM (inactive)

Compound: O=C1CC(c2ccccc2)C2(C(=O)NC(=S)NC2=O)C(c2ccccc2)C1 (stereo not given)
- GI50 (OVCAR-3): > 75 µM (inactive)
- GI50 (Malme-3M): > 75 µM (inactive)
- GI50 (SF-539): > 75 µM (inactive)
- GI50 (MOLT-4): 27.3 µM (inactive)
- GI50 (U-251): > 75 µM (inactive)
- GI50 (NCI-H460): > 75 µM (inactive)
- GI50 (M14): > 75 µM (inactive)
- GI50 (TK-10): > 75 µM (inactive)
- GI50 (PC-3): > 75 µM (inactive)
- GI50 (OVCAR-8): > 75 µM (inactive)
- GI50 (NCI-H226): > 75 µM (inactive)
- GI50 (MDA-N): > 75 µM (inactive)
- GI50 (IGROV-1): > 75 µM (inactive)
- GI50 (HT-29): > 75 µM (inactive)
- GI50 (MDA-MB-231): > 75 µM (inactive)
- GI50 (COLO 205): > 75 µM (inactive)
- GI50 (786-0): > 75 µM (inactive)
- GI50 (UO-31): > 75 µM (inactive)
- GI50 (K562): > 75 µM (inactive)
- GI50 (HOP-92): 13.3 µM (inactive)
- GI50 (SW-620): > 75 µM (inactive)
- GI50 (NCI-H522): > 75 µM (inactive)
- GI50 (SF-295): > 75 µM (inactive)
- GI50 (SK-MEL-2): > 75 µM (inactive)
- GI50 (MCF7): > 75 µM (inactive)
- GI50 (ACHN): > 75 µM (inactive)
- GI50 (RXF 393): > 75 µM (inactive)
- GI50 (CCRF-CEM): > 75 µM (inactive)
- GI50 (RPMI-8226): 38.7 µM (inactive)
- GI50 (SR): 71 µM (inactive)
- GI50 (UACC-257): > 75 µM (inactive)
- GI50 (UACC-62): > 75 µM (inactive)
- GI50 (HCT-15): > 75 µM
- GI50 (LOX IMVI): > 75 µM (inactive)
- GI50 (T47D): > 75 µM (inactive)
- GI50 (EKVX): > 75 µM (inactive)
- GI50 (OVCAR-4): > 75 µM (inactive)
- GI50 (HL-60): 41.3 µM (inactive)
- GI50 (OVCAR-5): > 75 µM (inactive)
- GI50 (MDA-MB-435): 55.8 µM (inactive)
- GI50 (SN12C): > 75 µM (inactive)
- GI50 (SF-268): > 75 µM (inactive)
- GI50 (DU-145): > 75 µM (inactive)
- GI50 (SK-MEL-5): > 75 µM (inactive)
- GI50 (CAKI-1): > 75 µM (inactive)
- GI50 (SNB-19): > 75 µM (inactive)
- GI50 (NCI-H23): > 75 µM (inactive)
- GI50 (NCI/ADR-RES): > 75 µM (inactive)
- GI50 (SNB-75): > 75 µM (inactive)
- GI50 (BT-549): > 75 µM (inactive)
- GI50 (HCC 2998): > 75 µM (inactive)
- GI50 (HOP-62): > 75 µM (inactive)
- GI50 (SK-MEL-28): > 75 µM (inactive)
- GI50 (HCT-116): > 75 µM (inactive)
- GI50 (KM12): > 75 µM (inactive)
